ChEMBL document CHEMBL1201862, “PubChem BioAssay data set” (2004)
Blank lines part the entries; values can stand above or below the molecule they belong to. Active and inactive are the calls of the source.

Legend:
[1] = molecular target: Fibroblast growth factor receptor 3 (Homo sapiens, UniProt P22607); format: functional
[2] = molecular target: Testis-specific serine/threonine-protein kinase 2 (Homo sapiens, UniProt Q96PF2); format: functional;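 note: part of the Navigating the Kinome panel, target entry STK22B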
[3] = molecular target: Dual specificity mitogen-activated protein kinase kinase 1 (Homo sapiens, UniProt Q02750); assay: Navigating the Kinome. Panel member name: MAP2K1; format: functional
[4] = molecular target: Cyclin-dependent kinase 8 (Homo sapiens, UniProt P49336); assay: Navigating the Kinome. Panel member name: CDK8; format: functional
[5] = molecular target: Serine/threonine-protein kinase PLK1 (Homo sapiens, UniProt P53350); format: functional;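 note: PLK1 measured as one member of a kinome-wide profiling panel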
[6] = molecular target: Insulin-like growth factor 1 receptor (Homo sapiens, UniProt P08069); assay: Navigating the Kinome. Panel member name: IGF1R; format: functional
[7] = molecular target: Interleukin-1 receptor-associated kinase 1 (Homo sapiens, UniProt P51617); format: functional;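 note: IRAK1 tested as one member of a kinome panel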
[8] = molecular target: Vascular endothelial growth factor receptor 1 (Homo sapiens, UniProt P17948); format: functional;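 note: measured within a kinome-wide profiling panel, FLT1 as the panel member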
[9] = molecular target: Serine/threonine-protein kinase 17A (Homo sapiens, UniProt Q9UEE5); format: functional
[10] = molecular target: Tyrosine-protein kinase ABL1 (Homo sapiens, UniProt P00519); format: functional
[11] = molecular target: MAP kinase-activated protein kinase 3 (Homo sapiens, UniProt Q16644); format: functional;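 note: value comes from a kinome-wide profiling panel in which MAPKAPK3 is one of the panel members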
[12] = molecular target: 5'-AMP-activated protein kinase catalytic subunit alpha-1 (Homo sapiens, UniProt Q13131); format: functional
[13] = molecular target: Macrophage-stimulating protein receptor (Homo sapiens, UniProt Q04912); assay: Navigating the Kinome. Panel member name: MST1R; format: functional
[14] = molecular target: Homeodomain-interacting protein kinase 2 (Homo sapiens, UniProt Q9H2X6); format: functional;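 note: measured within a kinome-wide kinase profiling panel, HIPK2 being one panel member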
[15] = molecular target: Tyrosine-protein kinase Lck (Homo sapiens, UniProt P06239); format: functional;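 note: lck was assayed as one member of a kinase panel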
Aurora kinase A = Aurora kinase A (Homo sapiens, UniProt O14965); format: functional;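 note: value from the Navigating the Kinome kinase panel profiling, panel entry STK6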
[16] = molecular target: Tyrosine-protein kinase FRK (Homo sapiens, UniProt P42685); format: functional;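 note: FRK tested as one member of a kinome panel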
[17] = molecular target: STE20-like serine/threonine-protein kinase (Homo sapiens, UniProt Q9H2G2); format: functional
[18] = molecular target: Tyrosine-protein kinase JAK3 (Homo sapiens, UniProt P52333); format: functional
[19] = molecular target: Leukocyte tyrosine kinase receptor (Homo sapiens, UniProt P29376); assay: Navigating the Kinome. Panel member name: LTK; format: functional
[20] = molecular target: T1, Histone-lysine N-methyltransferase NSD2 (Homo sapiens, UniProt O96028); format: biochemical
T1 sequence (O96028 whole entry): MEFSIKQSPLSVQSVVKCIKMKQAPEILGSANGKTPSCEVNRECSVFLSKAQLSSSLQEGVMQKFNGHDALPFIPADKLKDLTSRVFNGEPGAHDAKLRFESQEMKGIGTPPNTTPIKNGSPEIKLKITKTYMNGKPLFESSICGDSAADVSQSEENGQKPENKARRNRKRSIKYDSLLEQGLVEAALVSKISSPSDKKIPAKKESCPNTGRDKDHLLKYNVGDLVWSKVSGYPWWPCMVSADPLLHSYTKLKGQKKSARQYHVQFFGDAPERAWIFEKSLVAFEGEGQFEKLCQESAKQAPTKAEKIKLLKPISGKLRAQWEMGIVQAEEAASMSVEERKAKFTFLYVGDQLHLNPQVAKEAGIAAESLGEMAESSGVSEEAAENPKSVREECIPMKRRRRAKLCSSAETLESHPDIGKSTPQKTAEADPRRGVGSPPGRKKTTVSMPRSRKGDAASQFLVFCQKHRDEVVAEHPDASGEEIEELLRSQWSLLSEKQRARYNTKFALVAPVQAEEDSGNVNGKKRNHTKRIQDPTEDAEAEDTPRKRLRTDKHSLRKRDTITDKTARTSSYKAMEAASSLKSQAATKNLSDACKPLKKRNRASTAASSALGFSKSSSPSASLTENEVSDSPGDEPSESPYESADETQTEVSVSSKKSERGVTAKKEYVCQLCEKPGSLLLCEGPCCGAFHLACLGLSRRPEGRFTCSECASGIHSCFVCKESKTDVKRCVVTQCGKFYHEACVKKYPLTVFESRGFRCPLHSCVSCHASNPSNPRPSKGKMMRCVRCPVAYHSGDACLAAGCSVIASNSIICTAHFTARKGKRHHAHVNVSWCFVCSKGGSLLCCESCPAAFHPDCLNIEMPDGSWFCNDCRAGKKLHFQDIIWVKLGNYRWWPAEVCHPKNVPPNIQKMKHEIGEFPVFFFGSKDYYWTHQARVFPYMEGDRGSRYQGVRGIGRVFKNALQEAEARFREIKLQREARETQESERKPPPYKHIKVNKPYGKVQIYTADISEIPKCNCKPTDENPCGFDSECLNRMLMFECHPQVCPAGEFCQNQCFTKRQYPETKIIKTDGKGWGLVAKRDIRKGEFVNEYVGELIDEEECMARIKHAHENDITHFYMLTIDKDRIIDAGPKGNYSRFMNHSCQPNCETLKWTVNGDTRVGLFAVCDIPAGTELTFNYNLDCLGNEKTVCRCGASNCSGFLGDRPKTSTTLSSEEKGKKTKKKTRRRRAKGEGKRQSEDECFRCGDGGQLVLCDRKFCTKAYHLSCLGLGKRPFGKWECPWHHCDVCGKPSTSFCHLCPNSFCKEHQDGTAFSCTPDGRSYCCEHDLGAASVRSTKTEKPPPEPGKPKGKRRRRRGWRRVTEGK

[21] = molecular target: T2, Sentrin-specific protease 8 (Homo sapiens, UniProt Q96LD8); format: functional
T2 sequence (Q96LD8 whole entry): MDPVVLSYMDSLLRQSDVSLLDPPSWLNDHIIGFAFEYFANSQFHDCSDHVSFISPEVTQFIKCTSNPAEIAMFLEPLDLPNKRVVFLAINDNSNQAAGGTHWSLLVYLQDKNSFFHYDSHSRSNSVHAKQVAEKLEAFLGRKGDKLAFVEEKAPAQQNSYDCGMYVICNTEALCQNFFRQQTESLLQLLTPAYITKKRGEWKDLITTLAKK

[22] = molecular target: Tyrosyl-DNA phosphodiesterase 2 (Homo sapiens, UniProt O95551); assay: potency against TDP2 phosphodiesterase activity – biochemical, epi absorbance, IC50, dose response (AID 743297)
[23] = molecular target: T2, Sentrin-specific protease 8; format: functional; remark: listed apart in the source
[24] = molecular target: Photoreceptor-specific nuclear receptor (Homo sapiens, UniProt Q9Y5X4); format: functional;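 note: potency for compounds that break the NR2E3 corepressor complex and count as activators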

Sequence of Tyrosyl-DNA phosphodiesterase 2 (O95551 whole entry): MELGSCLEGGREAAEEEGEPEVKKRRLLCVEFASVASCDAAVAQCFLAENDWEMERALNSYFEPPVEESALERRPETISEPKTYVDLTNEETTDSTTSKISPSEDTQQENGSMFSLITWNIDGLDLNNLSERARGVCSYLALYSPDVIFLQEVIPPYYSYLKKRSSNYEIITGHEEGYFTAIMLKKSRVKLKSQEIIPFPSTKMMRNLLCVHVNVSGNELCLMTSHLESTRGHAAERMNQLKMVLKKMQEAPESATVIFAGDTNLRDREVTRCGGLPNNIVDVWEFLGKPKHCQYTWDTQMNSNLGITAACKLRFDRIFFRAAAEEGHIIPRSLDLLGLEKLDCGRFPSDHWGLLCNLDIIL
Sequence of Serine/threonine-protein kinase PLK1 (P53350 whole entry): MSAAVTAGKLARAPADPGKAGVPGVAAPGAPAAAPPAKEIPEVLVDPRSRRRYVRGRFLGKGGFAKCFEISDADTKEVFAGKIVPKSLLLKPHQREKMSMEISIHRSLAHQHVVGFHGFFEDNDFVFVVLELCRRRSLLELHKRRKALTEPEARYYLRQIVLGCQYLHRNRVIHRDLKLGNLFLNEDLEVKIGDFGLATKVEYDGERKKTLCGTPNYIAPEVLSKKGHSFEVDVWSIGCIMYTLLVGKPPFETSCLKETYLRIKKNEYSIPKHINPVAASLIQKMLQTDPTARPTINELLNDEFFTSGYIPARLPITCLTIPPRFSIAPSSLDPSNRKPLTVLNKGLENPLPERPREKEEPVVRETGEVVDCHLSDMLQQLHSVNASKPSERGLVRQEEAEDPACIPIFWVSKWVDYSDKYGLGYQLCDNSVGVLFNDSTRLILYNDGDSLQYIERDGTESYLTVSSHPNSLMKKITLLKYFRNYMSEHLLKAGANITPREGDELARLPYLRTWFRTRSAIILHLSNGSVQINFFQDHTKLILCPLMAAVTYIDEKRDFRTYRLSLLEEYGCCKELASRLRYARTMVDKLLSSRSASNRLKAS
Sequence of Insulin-like growth factor 1 receptor (P08069 31-736 limits assumed): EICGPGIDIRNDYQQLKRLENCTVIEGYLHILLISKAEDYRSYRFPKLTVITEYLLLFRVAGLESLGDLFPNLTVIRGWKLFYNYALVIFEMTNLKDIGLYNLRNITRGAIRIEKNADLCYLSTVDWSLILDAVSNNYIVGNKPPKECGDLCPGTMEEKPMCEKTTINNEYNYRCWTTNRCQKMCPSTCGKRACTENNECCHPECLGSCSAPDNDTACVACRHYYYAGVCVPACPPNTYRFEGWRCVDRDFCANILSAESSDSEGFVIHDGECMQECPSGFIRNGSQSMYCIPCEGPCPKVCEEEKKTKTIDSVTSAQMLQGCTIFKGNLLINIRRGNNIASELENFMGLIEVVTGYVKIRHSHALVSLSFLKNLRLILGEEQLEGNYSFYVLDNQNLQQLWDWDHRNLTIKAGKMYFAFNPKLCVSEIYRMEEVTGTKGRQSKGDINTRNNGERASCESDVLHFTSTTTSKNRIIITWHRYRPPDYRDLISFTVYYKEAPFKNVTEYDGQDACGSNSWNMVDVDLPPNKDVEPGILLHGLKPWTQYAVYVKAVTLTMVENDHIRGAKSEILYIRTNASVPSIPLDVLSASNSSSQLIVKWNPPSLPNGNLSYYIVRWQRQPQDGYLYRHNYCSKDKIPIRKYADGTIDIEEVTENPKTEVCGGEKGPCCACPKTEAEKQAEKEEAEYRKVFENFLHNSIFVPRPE
Sequence of Insulin-like growth factor 1 receptor (P08069 741-1367 limits assumed): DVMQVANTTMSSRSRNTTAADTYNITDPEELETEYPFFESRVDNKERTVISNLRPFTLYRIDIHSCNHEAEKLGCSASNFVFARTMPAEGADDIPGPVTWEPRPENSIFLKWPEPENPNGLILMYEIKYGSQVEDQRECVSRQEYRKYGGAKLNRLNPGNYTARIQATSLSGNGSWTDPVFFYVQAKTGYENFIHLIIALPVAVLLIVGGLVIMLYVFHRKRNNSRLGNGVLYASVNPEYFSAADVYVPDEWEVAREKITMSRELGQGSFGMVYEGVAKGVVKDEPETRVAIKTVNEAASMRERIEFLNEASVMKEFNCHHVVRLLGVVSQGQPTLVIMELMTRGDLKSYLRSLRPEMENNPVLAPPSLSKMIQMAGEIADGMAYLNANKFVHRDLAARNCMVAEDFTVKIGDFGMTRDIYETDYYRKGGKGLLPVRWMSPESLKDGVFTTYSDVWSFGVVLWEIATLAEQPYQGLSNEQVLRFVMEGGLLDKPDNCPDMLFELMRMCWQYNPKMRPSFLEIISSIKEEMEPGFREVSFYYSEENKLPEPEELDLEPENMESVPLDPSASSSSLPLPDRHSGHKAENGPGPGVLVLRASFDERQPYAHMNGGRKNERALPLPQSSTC
Sequence of Leukocyte tyrosine kinase receptor (P29376 whole entry): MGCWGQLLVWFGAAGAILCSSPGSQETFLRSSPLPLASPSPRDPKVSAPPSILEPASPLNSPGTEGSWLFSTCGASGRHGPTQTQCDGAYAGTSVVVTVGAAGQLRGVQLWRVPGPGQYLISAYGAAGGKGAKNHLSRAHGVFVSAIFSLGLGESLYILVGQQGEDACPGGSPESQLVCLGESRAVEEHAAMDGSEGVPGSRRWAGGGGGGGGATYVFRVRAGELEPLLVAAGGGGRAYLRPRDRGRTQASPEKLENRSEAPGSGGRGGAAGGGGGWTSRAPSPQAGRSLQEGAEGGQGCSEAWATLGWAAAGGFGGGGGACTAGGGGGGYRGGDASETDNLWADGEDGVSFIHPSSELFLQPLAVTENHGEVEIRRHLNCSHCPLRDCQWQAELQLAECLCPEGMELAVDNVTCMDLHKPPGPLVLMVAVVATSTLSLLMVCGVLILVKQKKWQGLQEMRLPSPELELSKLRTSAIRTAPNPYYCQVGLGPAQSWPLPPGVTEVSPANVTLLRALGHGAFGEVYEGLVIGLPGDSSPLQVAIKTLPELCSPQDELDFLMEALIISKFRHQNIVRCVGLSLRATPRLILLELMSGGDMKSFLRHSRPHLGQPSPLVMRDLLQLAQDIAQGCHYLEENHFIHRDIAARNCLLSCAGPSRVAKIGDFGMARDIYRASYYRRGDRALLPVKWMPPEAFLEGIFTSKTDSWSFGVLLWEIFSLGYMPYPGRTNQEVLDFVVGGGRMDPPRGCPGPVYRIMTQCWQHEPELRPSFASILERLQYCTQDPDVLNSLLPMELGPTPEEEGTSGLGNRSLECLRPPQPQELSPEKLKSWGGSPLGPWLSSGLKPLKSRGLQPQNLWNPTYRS
Sequence of STE20-like serine/threonine-protein kinase (Q9H2G2 whole entry): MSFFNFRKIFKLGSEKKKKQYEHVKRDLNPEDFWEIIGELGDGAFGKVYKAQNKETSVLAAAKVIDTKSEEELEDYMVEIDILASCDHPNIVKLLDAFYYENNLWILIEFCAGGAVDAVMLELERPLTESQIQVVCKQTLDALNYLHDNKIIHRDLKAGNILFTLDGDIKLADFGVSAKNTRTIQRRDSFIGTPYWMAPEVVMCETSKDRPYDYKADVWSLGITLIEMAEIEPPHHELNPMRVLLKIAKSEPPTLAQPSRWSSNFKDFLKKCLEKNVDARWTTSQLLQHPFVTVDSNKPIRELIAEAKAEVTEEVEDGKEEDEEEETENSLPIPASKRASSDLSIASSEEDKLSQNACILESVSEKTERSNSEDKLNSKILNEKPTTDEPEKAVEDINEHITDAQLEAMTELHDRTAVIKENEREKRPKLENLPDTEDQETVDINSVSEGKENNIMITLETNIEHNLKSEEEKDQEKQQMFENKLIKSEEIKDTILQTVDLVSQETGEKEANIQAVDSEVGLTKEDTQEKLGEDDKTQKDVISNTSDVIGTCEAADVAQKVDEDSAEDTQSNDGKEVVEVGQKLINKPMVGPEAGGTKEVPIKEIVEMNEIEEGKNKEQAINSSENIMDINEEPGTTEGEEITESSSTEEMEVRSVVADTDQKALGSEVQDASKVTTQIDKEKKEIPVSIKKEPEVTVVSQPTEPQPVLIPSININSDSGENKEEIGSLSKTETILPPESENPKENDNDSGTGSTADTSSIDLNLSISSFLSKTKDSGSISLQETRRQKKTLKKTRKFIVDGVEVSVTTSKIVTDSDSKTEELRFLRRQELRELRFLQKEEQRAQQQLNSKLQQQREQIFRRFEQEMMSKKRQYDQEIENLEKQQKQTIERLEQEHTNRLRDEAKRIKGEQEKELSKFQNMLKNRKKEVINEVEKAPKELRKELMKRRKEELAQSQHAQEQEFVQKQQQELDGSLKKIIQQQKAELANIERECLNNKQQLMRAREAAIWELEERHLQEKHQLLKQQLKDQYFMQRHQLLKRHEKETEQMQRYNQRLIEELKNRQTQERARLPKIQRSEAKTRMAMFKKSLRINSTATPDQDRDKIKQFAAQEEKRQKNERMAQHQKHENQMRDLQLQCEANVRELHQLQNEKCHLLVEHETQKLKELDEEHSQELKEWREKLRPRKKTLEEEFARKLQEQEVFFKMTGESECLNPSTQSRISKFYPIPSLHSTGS
Sequence of Aurora kinase A (O14965 whole entry): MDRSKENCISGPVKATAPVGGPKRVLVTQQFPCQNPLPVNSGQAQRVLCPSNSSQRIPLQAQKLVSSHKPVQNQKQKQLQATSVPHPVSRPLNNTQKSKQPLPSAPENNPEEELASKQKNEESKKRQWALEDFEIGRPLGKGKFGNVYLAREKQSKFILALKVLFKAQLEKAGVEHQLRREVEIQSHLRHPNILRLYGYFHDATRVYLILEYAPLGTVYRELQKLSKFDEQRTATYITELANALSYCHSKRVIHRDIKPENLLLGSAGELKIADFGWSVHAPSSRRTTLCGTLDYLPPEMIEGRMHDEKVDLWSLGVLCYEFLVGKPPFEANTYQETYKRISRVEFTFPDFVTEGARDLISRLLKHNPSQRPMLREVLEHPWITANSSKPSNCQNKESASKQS

Ki [1]: > 2000 nM (inactive)
Ki [2]: > 1580 nM (inactive)
Ki [3]: > 2510 nM (inactive)
Ki [4]: 501 nM (active)
Ki [5]: > 7940 nM (inactive)
Ki [6]: > 2000 nM (inactive)
Ki [7]: 7940 nM (active)
Ki [8]: > 2000 nM (inactive)
Ki [9]: 3980 nM (active)
Ki [10]: > 631 nM (inactive)
Ki [11]: > 10000 nM (inactive)
Ki [12]: > 2510 nM (inactive)
Ki [13]: 2000 nM (active)
Ki [14]: > 3160 nM (inactive)
Ki [15]: > 3980 nM (inactive)
Ki (Aurora kinase A): > 2000 nM (inactive)
Ki [16]: > 2510 nM (inactive)
Ki [17]: 5010 nM (active)
Ki [18]: > 3980 nM (inactive)
Ki [19]: 398 nM (active)
SMILES: CC(N)C1CCC(C(=O)Nc2ccnc3[nH]ccc23)CC1 (centres undefined)

SMILES: Cc1c(NC(=O)C(C)OC(=O)c2ccc([N+](=O)[O-])s2)c(=O)n(-c2ccccc2)n1C (centres undefined)
AC50 [20]: > 20000 nM (inactive)
IC50 [21]: 1990 nM (active)
IC50 [22]: 49500 nM (inactive)
IC50 [23]: 7350 nM (active)

SMILES: COc1cc(Br)c(C(=O)c2nccc3cc(OC)c(OC)cc23)cc1OC
AC50 [20]: 416 nM (active)
IC50 [21]: 2290 nM (active)
IC50 [22]: 3530 nM (active)
IC50 [23]: 377 nM (active)
IC50 [24]: > 39800 nM (not active)
